Data published in paper doi:10.1101/2021.10.07.463234v2 (biorxiv, 2021).
Counter-ions that a name gives are not always drawn.

target: SARS-CoV-2 Mac1 (Severe acute respiratory syndrome coronavirus 2, UniProt P0DTD1); experiment: biochemical; settings: 100 µM; inhibitor

Compound | %inhibition [%]
CCCC(CCC)C(=O)O [Divalproex Sodium] | 5.124
CC(=O)O[C@@]12CO[C@@H]1C[C@H](O)[C@@]1(C)C(=O)[C@H](O)C3=C(C)[C@@H](OC(=O)[C@H](O)[C@@H](NC(=O)OC(C)(C)C)c4ccccc4)C[C@@](O)([C@@H](OC(=O)c4ccccc4)[C@H]21)C3(C)C [Docetaxel Trihydrate] | 6.628
COc1cc2c(cc1OC)C(=O)C(CC1CCN(Cc3ccccc3)CC1)C2 (stereo not drawn) [Donepezil HCl] | 0
COc1cc2c(cc1OC)C(=O)C(CC1CCN(Cc3ccccc3)CC1)C2 (stereo not drawn) [Donepezil] | 5.95
C[C@@H](O)[C@H]1C(=O)N2C(C(=O)O)=C(S[C@@H]3CN[C@H](CNS(N)(=O)=O)C3)[C@H](C)[C@H]12 [Doripenem Hydrate] | 0
C[C@@H](O)[C@H]1C(=O)N2C(C(=O)O)=C(S[C@@H]3CN[C@H](CNS(N)(=O)=O)C3)[C@H](C)[C@H]12 [Doripenem] | 1.128
CN1CCN(c2ccc3nc(-c4c(N)c5c(F)cccc5[nH]c4=O)[nH]c3c2)CC1 [Dovitinib (TKI258) Lactate] | 26.03
CN1CCN(c2ccc3nc(-c4c(N)c5c(F)cccc5[nH]c4=O)[nH]c3c2)CC1 [Dovitinib (TKI-258, CHIR-258)] | 50.41
CCN1CC(CCN2CCOCC2)C(c2ccccc2)(c2ccccc2)C1=O (stereo not drawn) [Doxapram HCl] | 9.802
CCN1CC(CCN2CCOCC2)C(c2ccccc2)(c2ccccc2)C1=O (stereo not drawn) [Doxapram] | 4.735
C[C@H]1c2cccc(O)c2C(=O)C2=C(O)[C@]3(O)C(=O)C(C(N)=O)=C(O)[C@@H](N(C)C)[C@@H]3[C@@H](O)[C@@H]21 [Doxycycline Hyclate] | 21.8
C[C@H]1c2cccc(O)c2C(=O)C2=C(O)[C@]3(O)C(=O)C(C(N)=O)=C(O)[C@@H](N(C)C)[C@@H]3[C@@H](O)[C@@H]21 [Doxycycline] | 4.525
CNCC[C@H](Oc1cccc2ccccc12)c1cccs1 [Duloxetine HCl] | 0
CNCC[C@H](Oc1cccc2ccccc12)c1cccs1 [Duloxetine] | 8.877
CN1CCc2nc(C(=O)N[C@@H]3C[C@@H](C(=O)N(C)C)CC[C@@H]3NC(=O)C(=O)Nc3ccc(Cl)cn3)sc2C1 [Edoxaban tosylate Monohydrate] | 20.23
CN1CCc2nc(C(=O)N[C@@H]3C[C@@H](C(=O)N(C)C)CC[C@@H]3NC(=O)C(=O)Nc3ccc(Cl)cn3)sc2C1 [Edoxaban] | 4.891
CC1=NN(c2ccc(C)c(C)c2)C(=O)/C1=N\Nc1cccc(-c2cccc(C(=O)O)c2)c1O [Eltrombopag Olamine] | 18.42
CC1=NN(c2ccc(C)c(C)c2)C(=O)/C1=N\Nc1cccc(-c2cccc(C(=O)O)c2)c1O [Eltrombopag] | 0
CCOCCn1c(N2CCCN(C)CC2)nc2ccccc21 [Emedastine Difumarate] | 0.198
CCOCCn1c(N2CCCN(C)CC2)nc2ccccc21 [Emedastine] | 0
CCn1cc(C(=O)O)c(=O)c2cc(F)c(N3CCNCC3)nc21 [Enoxacin Sesquihydrate] | 0
CCn1cc(C(=O)O)c(=O)c2cc(F)c(N3CCNCC3)nc21 [Enoxacin] | 29.69
C=C1[C@H](CO)[C@@H](O)C[C@@H]1n1cnc2c(=O)[nH]c(N)nc21 [Entecavir Hydrate] | 11.65

same assay, conditions: read-out: %inhibition

Compound | inhibition at 100 µM [%]
O=C1c2c(O)cccc2Cc2cccc(O)c21 [Dithranol] | 18.7
CC(=O)O[C@@]12CO[C@@H]1C[C@H](O)[C@@]1(C)C(=O)[C@H](O)C3=C(C)[C@@H](OC(=O)[C@H](O)[C@@H](NC(=O)OC(C)(C)C)c4ccccc4)C[C@@](O)([C@@H](OC(=O)c4ccccc4)[C@H]21)C3(C)C [Docetaxel] | 11.6
CCCCC(CC)COC(=O)CC(C(=O)OCC(CC)CCCC)S(=O)(=O)O (stereo not drawn) [Docusate Sodium] | 14.3
CN(CCOc1ccc(NS(C)(=O)=O)cc1)CCc1ccc(NS(C)(=O)=O)cc1 [Dofetilide] | 8.13
O=C(O[C@@H]1C[C@@H]2C[C@H]3C[C@H](C1)N2CC3=O)c1c[nH]c2ccccc12 [Dolasetron] | 7.05
C[C@@H]1CCO[C@H]2Cn3cc(C(=O)NCc4ccc(F)cc4F)c(=O)c(O)c3C(=O)N12 [Dolutegravir (GSK1349572)] | 9.9
CCCCCCCCCCCC[N+](C)(C)CCOc1ccccc1 [Domiphen Bromide] | 0.79
NCCc1ccc(O)c(O)c1 [Dopamine HCl] | 39.1
Cc1ccc(-n2nc(C(C)(C)C)cc2NC(=O)Nc2ccc(OCCN3CCOCC3)c3ccccc23)cc1 [Doramapimod (BIRB 796)] | 0
COc1cc2nc(N3CCN(C(=O)C4COc5ccccc5O4)CC3)nc(N)c2cc1OC (stereo not drawn) [Doxazosin Mesylate] | 14.6
C=C1/C(=C\C=C2/CCC[C@]3(C)[C@@H]([C@H](C)/C=C/[C@H](C)C(C)C)CC[C@@H]23)C[C@@H](O)C[C@@H]1O [Doxercalciferol] | 0
C[C@H]1O[C@@H](n2cc(F)c(=O)[nH]c2=O)[C@H](O)[C@@H]1O [Doxifluridine] | 0
Cn1c(=O)c2c(ncn2CC2OCCO2)n(C)c1=O [Doxofylline] | 1.49
COc1cccc2c1C(=O)c1c(O)c3c(c(O)c1C2=O)CC(O)(C(=O)CO)CC3OC1CC(N)C(O)C(C)O1 (stereo not drawn) [Doxorubicin (Adriamycin) HCl] | 18.3
CN(C)CCOC(C)(c1ccccc1)c1ccccn1 (stereo not drawn) [Doxylamine Succinate] | 4.4
CCCCc1oc2ccc(NS(C)(=O)=O)cc2c1C(=O)c1ccc(OCCCN(CCCC)CCCC)cc1 [Dronedarone HCl] | 0
O=C(CCCN1CC=C(n2c(=O)[nH]c3ccccc32)CC1)c1ccc(F)cc1 [Droperidol] | 1.08
OCC(O)CN1CCN(c2ccccc2)CC1 (stereo not drawn) [Dropropizine] | 20.7
C[C@]12CCC(=O)C=C1[C@@H]1C[C@@H]1[C@H]1[C@@H]3[C@@H]4C[C@@H]4[C@@]4(CCC(=O)O4)[C@@]3(C)CC[C@@H]12 [Drospirenone] | 0
C[C@]12C=CC(=O)N[C@@H]1CC[C@@H]1[C@@H]2CC[C@]2(C)[C@@H](C(=O)Nc3cc(C(F)(F)F)ccc3C(F)(F)F)CC[C@@H]12 [Dutasteride] | 12
C[C@H](Nc1ncnc2nc[nH]c12)c1cc2cccc(Cl)c2c(=O)n1-c1ccccc1 [Duvelisib (IPI-145, INK1197)] | 2.52
CCCCOc1ccc(C(=O)CCN2CCCCC2)cc1 [Dyclonine HCl] | 0
Cn1c(=O)c2c(ncn2CC(O)CO)n(C)c1=O (stereo not drawn) [Dyphylline] | 0.0817

Compound | inhibition at 100 µM [%]
CC(C)c1cc2c(cc1S(=O)(=O)O)[C@@]1(C)CCC[C@@](C)(C(=O)O)[C@@H]1CC2 [Ecabet sodium] | 10.4
CC1=NN(c2ccccc2)C(=O)C1 [Edaravone] | 5.75
O=C1Nc2ccc(Cl)cc2[C@@](C#CC2CC2)(C(F)(F)F)O1 [Efavirenz] | 0
C=C1CCN([C@H](C)[C@](O)(Cn2cncn2)c2ccc(F)cc2F)CC1 [Efinaconazole] | 2.14
NCCCC(N)(C(=O)O)C(F)F (stereo not drawn) [Eflornithine hydrochloride hydrate] | 0
CC1=C(C(=O)OCCN(Cc2ccccc2)c2ccccc2)C(c2cccc([N+](=O)[O-])c2)C(P2(=O)OCC(C)(C)CO2)=C(C)N1 (stereo not drawn) [Efonidipine] | 14.5
COc1cccc(-c2c(C)n(Cc3c(F)cccc3C(F)(F)F)c(=O)n(C[C@H](NCCCC(=O)O)c3ccccc3)c2=O)c1F [Elagolix Sodium] | 0
COC(=O)N[C@H](C(=O)N1CCC[C@H]1c1nc(-c2ccc3c(c2)O[C@@H](c2ccccc2)n2c-3cc3cc(-c4c[nH]c([C@@H]5CCCN5C(=O)[C@@H](NC(=O)OC)C(C)C)n4)ccc32)c[nH]1)C(C)C [Elbasvir] | 8.16
CN1CCC[C@@H]1Cc1c[nH]c2ccc(CCS(=O)(=O)c3ccccc3)cc12 [Eletriptan HBr] | 0
CCCCCCCC(=O)N[C@H](CN1CCCC1)[C@H](O)c1ccc2c(c1)OCCO2 [Eliglustat] | 2.49
O=c1oc2c(O)c(O)cc3c(=O)oc4c(O)c(O)cc1c4c23 [Ellagic acid] | 33.1
COc1ccc(CN(C(=O)[C@@H](N)Cc2c(C)cc(C(N)=O)cc2C)[C@@H](C)c2ncc(-c3ccccc3)[nH]2)cc1C(=O)O [Eluxadoline] | 5.52
COc1cc2c(cc1Cc1cccc(Cl)c1F)c(=O)c(C(=O)O)cn2[C@H](CO)C(C)C [Elvitegravir (GS-9137, JTK-303)] | 0
OC[C@H]1O[C@@H](c2ccc(Cl)c(Cc3ccc(O[C@H]4CCOC4)cc3)c2)[C@H](O)[C@@H](O)[C@@H]1O [Empagliflozin (BI 10773)] | 0
C[C@H](NC(=O)C(=O)Nc1ccccc1C(C)(C)C)C(=O)N[C@@H](CC(=O)O)C(=O)COc1c(F)c(F)cc(F)c1F [Emricasan] | 21
Nc1nc(=O)n([C@@H]2CS[C@H](CO)O2)cc1F [Emtricitabine] | 0
CCOC(=O)[C@H](CCc1ccccc1)N[C@@H](C)C(=O)N1CCC[C@H]1C(=O)O [Enalapril Maleate] | 16.8
C[C@H](N[C@@H](CCc1ccccc1)C(=O)O)C(=O)N1CCC[C@H]1C(=O)O [Enalaprilat Dihydrate] | 10.6
CC(C)(O)CNc1nc(Nc2ccnc(C(F)(F)F)c2)nc(-c2cccc(C(F)(F)F)n2)n1 [Enasidenib (AG-221)] | 6.78
COC(=O)N[C@@H](C)CNc1nccc(-c2cn(C(C)C)nc2-c2cc(Cl)cc(NS(C)(=O)=O)c2F)n1 [Encorafenib (LGX818)] | 10.8
CC1(C)[C@@H](O)CC[C@]2(C)[C@H]3C(=O)C=C4[C@@H]5C[C@@](C)(C(=O)O)CC[C@]5(C)CC[C@@]4(C)[C@]3(C)CC[C@@H]12 [Enoxolone] | 0
CCN1CCN(c2cc3c(cc2F)c(=O)c(C(=O)O)cn3C2CC2)CC1 [Enrofloxacin] | 16.9
CCN(CC)C(=O)/C(C#N)=C/c1cc(O)c(O)c([N+](=O)[O-])c1 [Entacapone] | 0
